Laboratory results from patent US9234176B2, “Chemically defined production of cardiomyocytes from pluripotent stem cells” (The Board of Trustees of the Leland Stanford Junior …, priority 2012, dated 2016).

How the values were obtained:
[1] = system: hPSC; experiment: Directed cardiac differentiation of hPSC in minimal media (Example 1); format: cell-based, human; details: for Wnt signaling antagonist effective for cardiac differentiation: at a concentration of 5 μM; for further enhancement of differentiation by pathway inhibitors: small molecule inhibitors at the later stage of differentiation
Protocol: Directed Cardiac Differentiation Procedure. (volumes provided are for a T25 flask; adjust volumes proportionately for larger vessels) Day 0 (day 4 after passage): Aspirate medium, and replace with 5 mL of minimal media (CDM3, D3, D4, or D11) supplemented with 6 uM of CHIR-99021 (CHIR-99021 can be used at 4-15 μM). Place flasks in a regular ambient O2, 5% CO2 incubator. Day 2: 48 h. Aspirate media and replace with 5 mL of minimal media (CDM3, D3, D4, or D11). Day 3: 72 h. Aspirate media and replace with 5 mL of minimal media (CDM3, D3, D4, or D11) supplemented with 0.5 uM C59 (C59 may be used at 0.5-5 μM). Day 5: Aspirate media and replace with 5 mL of minimal media (CDM3, D3, D4, or D11). From day 5 onwards media should be changed every 2 days with minimal media (CDM3, D3, D4, or D11).
From day 0 to day 2 (d0-d2), minimal media (CDM3, D3, D4, or D11) was supplemented with the Wnt signaling agonist CHIR-99021 (6-10 uM 48 h, d0-d2), which triggers canonical Wnt/β-Catenin signaling that leads to the subsequent up-regulation of BMP4 and activin A. Media is then exchanged to non-supplemented minimal media (CDM3, D3, D4, or D11) for 1 day followed by contact with a Wnt signaling antagonist (e.g., C59: 0.5-5 uM, 48 h, d3-d5) for 2 days. At day 5, 7, and 9 minimal media (CDM3, D3, D4, or D11) is exchanged for fresh media, and contraction begins between d7 and d10. At day 11, media is exchanged to a variant of minimal media (CDM3, D3, D4, or D11) without […] that results in the depletion of non-cardiomyocytes due to a lack of glycogen stores. Media was exchanged on day 13 for fresh media lacking glucose. At day 15, media was exchanged for fresh minimal media (CDM3, D3, D4, or D11) (containing glucose).
The presence of cardiomyocytes was verified in a number of different ways, for example: flow cytometry of cells contacted with an antibody specific for a cardiomyocyte marker (TNNT2); imaging of cells stained with antibodies specific for α-Sarcomeric actin (red) and Troponin T (TNNT2); electrophysiological profiling; and evaluating responsiveness to known cardioactive drugs (e.g., Norepinephrine). Assays performed on multiple different cell lines (including several hESC lines and over 30 hiPSC lines) confirmed that the subject methods are highly consistent and highly efficient, as very little variability was observed among the different cell lines.

[2] = system: hiPSC; experiment: Analysis of components of defined media for hiPSC cardiac differentiation (contraction score); format: cell-based, human; parameters: 9 components subtracting: cardiac differentiation score / 2 components subtracting: cardiac differentiation score: key: 0: no cardiac differentiation or cell death; +: some contraction; ++: >50% contraction; +++: >75% contraction; details: for 21 components subtracting: cardiac differentiation score: a) each of the 21 components of B27 without insulin subtracted one at a time, score of medium lacking the component; for 10 components subtracting: cardiac differentiation score: b) second medium of 10 essential components, each subtracted one at a time; for 9 components subtracting: cardiac differentiation score: c) 9-component medium; for 9 components subtracting: cardiac differentiation score / 9 components (with 4 at 10x) subtracting: cardiac differentiation score / 6 components subtracting: cardiac differentiation score: each component subtracted; for 9 components (with 4 at 10x) subtracting: cardiac differentiation score: e) third medium with increased concentrations; for 6 components subtracting: cardiac differentiation score: f) fourth 6-component medium
From the text: Development of a Chemically Defined Cardiac Differentiation Platform. We first generated eleven pluripotent hiPSC lines under chemically defined conditions (FIG. 7) on a chemically synthesized vitronectin peptide substrate, with nonenzymatic passaging (FIG. 8). […] To formulate a chemically defined differentiation protocol, we concentrated on the observation that three unrelated media formations are capable of supporting growth factor-based monolayer cardiac differentiation: RPMI+B27-ins, supplemented StemPro-34, and LI-APEL (Table 5). […] Beginning with the 21 components of B27, we subtracted one component at a time and assessed for continued high efficiency differentiation (Table 6a-c) and also assessed components from two other two media (supplemented StemPro-34 and LI-APEL) that yielded benefits (Table 6d-f). We concluded that hiPSC cardiac differentiation was successful in a media consisting of […]: RPMI 1640 basal medium, L-ascorbic acid 2-phosphate (AA 2-P), and BSA (Table 6g).
Other additions to cardiac differentiation media tested were 10.7 μg/mL recombinant human transferrin, […], 1 μg/mL linoleic acid, 1 μg/mL linolenic acid, 2 ng/mL triiodo-l-thyronine, 2 μg/mL L-carnitine, 1 μg/mL D,L-alpha-tocopherol acetate, 100 ng/mL retinol acetate, 1 μg/mL ethanolamine, 20 ng/mL corticosterone, 9 ng/mL progesterone, 47 ng/mL lipoic acid, 100 ng/mL retinol, 1 μg/mL D,L-alpha-tocopherol, 100 ng/mL biotin, 2.5 ug/mL catalase, 2.5 μg/mL glutathione, 2.5 μg/mL superoxide dismutase, 2 μg/mL L-carnitine, 15 μg/mL D(+)-galactose, 16.1 μg/mL putrescine, 450 μM 1-thioglycerol, 55 μM 2-mercaptoethanol, 64 μg/mL L-ascorbic acid 2-phosphate (all from Sigma-Aldrich).

[3] = d) component at 10 x concentration

With O=C(Nc1cccc2cccnc12)c1ccc(N2C(=O)C3C4C=CC(C4)C3C2=O)cc1 (centres unmarked) [IWR-1, 4-(1,3,3a,4,7,7a-Hexahydro-1,3-dioxo-4,7-methano-2H-isoindol-2-yl)-N-8-quinolinyl-Benzamide] the “Wnt signaling antagonist effective for cardiac differentiation” value [1] was “effective”.
For CC(=O)[C@H]1CC[C@H]2[C@@H]3CCC4=CC(=O)CC[C@]4(C)[C@H]3CC[C@]12C [Progesterone], the “21 components subtracting: cardiac differentiation score” value [2] was “++ (>50% contraction)”.
COc1ccccc1-n1c(SCC(=O)Nc2nc3ccc(C)cc3s2)nc2c(c1=O)SCC2 [IWP-4, 2-(3,4,6,7-tetrahydro-3-(2-methoxyphenyl)-4-oxothieno[3,2-d]pyrimidin-2-ylthio)-N-(6-methylbenzo[d]thiazol-2-yl)acetamide] was tested, and the “Wnt signaling antagonist effective for cardiac differentiation” value [1] was “effective”.
With C[S+]([O-])c1ccc(-c2nc(-c3ccncc3)c(-c3ccc(F)cc3)[nH]2)cc1 (centres unmarked) [SB203580] the “further enhancement of differentiation by pathway inhibitors” value [1] was “did not further enhance the differentiation”.
CC/C=C\C/C=C\C/C=C\CCCCCCCC(=O)O [Linolenic acid] was tested, and the “21 components subtracting: cardiac differentiation score” value [2] was 0, the “10 components subtracting: cardiac differentiation score” value [2] was 0 and the “9 components subtracting: cardiac differentiation score” value [2] was 0. For the same molecule, the “9 components with the addition of: cardiac differentiation score” value [2, 3] was “+”, the “9 components (with 4 at 10x) subtracting: cardiac differentiation score” value [2] was 0 and the “6 components subtracting: cardiac differentiation score” value [2] was “+++ (>75% contraction)”.
For Holo transferrin: B27 component, the “21 components subtracting: cardiac differentiation score” value [2] was 0, the “10 components subtracting: cardiac differentiation score” value [2] was 0 and the “9 components subtracting: cardiac differentiation score” value [2] was 0. The “9 components with the addition of: cardiac differentiation score” value [2, 3] was “+” and the “6 components subtracting: cardiac differentiation score” value [2] was “+++ (>75% contraction)”.
With N[C@@H](Cc1cc(I)c(Oc2ccc(O)c(I)c2)c(I)c1)C(=O)O [T3 (triiodol-l-thyronine), triiodol-l-thyronine] the “21 components subtracting: cardiac differentiation score” value [2] was 0, the “10 components subtracting: cardiac differentiation score” value [2] was 0 and the “9 components subtracting: cardiac differentiation score” value [2] was 0. The “9 components with the addition of: cardiac differentiation score” value [2, 3] was “+++ (>75% contraction)” and the “9 components (with 4 at 10x) subtracting: cardiac differentiation score” value [2] was “+++ (>75% contraction)”.
With Catalase the “21 components subtracting: cardiac differentiation score” value [2] was “++ (>50% contraction)”.
In the case of Cc1c(C)c2c(c(C)c1O)CCC(C)(CCCC(C)CCCC(C)CCCC(C)C)O2 [D,L-a-tocopherol (vit E), D,L-a-tocopherol], the “21 components subtracting: cardiac differentiation score” value [2] is reported as “++ (>50% contraction)”.
Cc1ccc2nc(NC(=O)CSc3nc4c(c(=O)n3-c3ccccc3)SCC4)sc2c1 [IWP-2, N-(6-Methyl-2-benzothiazoyl)-2-[(3,4,6,7-tetrahydro-4-oxo-3-phenylthieno[3,2-d]pyrimidin-2-yl)thio]-acetamide] was tested, and the “Wnt signaling antagonist effective for cardiac differentiation” value [1] was “effective”.
For c1ccc(-c2[nH]ncc2-c2ccnc3ccccc23)nc1 [LY364947], the “further enhancement of differentiation by pathway inhibitors” value [1] was “did not further enhance the differentiation”.
For O=C[C@H](O)[C@@H](O)[C@@H](O)[C@H](O)CO [D(+)-galactose], the “21 components subtracting: cardiac differentiation score” value [2] was “++ (>50% contraction)”.
For O=C1[C@H](Cc2ccc(O)cc2)N2C(=O)CCN(C(=O)NCc3ccccc3)[C@H]2CN1Cc1cccc2ccccc12 [ICG-001, (6S,9aS)-6-(4-hydroxybenzyl)-N-benzyl-8-(naphthalen-1-ylmethyl)-4,7-diaxo-hexahydro-2H-pyrazino[1,2-a]pyrimidine-1(6H)-carboxamide], the “Wnt signaling antagonist effective for cardiac differentiation” value [1] was “not found to be effective”.
In the case of O=c1[nH]c(-c2ccc(C(F)(F)F)cc2)nc2c1CSCC2 [XAV939, 3,5,7,8-Tetrahydro-2-[4-(trifluoromethyl)phenyl]-4H-thiopyrano[4,3-d]pyrimidin-4-one], the “Wnt signaling antagonist effective for cardiac differentiation” value [1] is reported as “effective”.
In the case of NCCCCN [Putrescine], the “21 components subtracting: cardiac differentiation score” value [2] is reported as “++ (>50% contraction)”.
In the case of CC(=O)OC/C=C(C)/C=C/C=C(C)/C=C/C1=C(C)CCCC1(C)C [Retinol acetate (vit A), Retinol acetate], the “21 components subtracting: cardiac differentiation score” value [2] is reported as 0, the “10 components subtracting: cardiac differentiation score” value [2] is reported as 0 and the “9 components subtracting: cardiac differentiation score” value [2] is reported as 0. For the same molecule, the “9 components with the addition of: cardiac differentiation score” value [2, 3] was “+++ (>75% contraction)” and the “9 components (with 4 at 10x) subtracting: cardiac differentiation score” value [2] was “+++ (>75% contraction)”.
With NCCO [Ethanolamine] the “21 components subtracting: cardiac differentiation score” value [2] was “++ (>50% contraction)”.
In the case of O=[Se](O)O [Sodium selenite], the “21 components subtracting: cardiac differentiation score” value [2] is reported as 0, the “10 components subtracting: cardiac differentiation score” value [2] is reported as 0 and the “9 components subtracting: cardiac differentiation score” value [2] is reported as 0. For the same molecule, the “9 components with the addition of: cardiac differentiation score” value [2, 3] was “+++ (>75% contraction)” and the “6 components subtracting: cardiac differentiation score” value [2] was “+++ (>75% contraction)”.
NC(=O)c1ccc(-c2nc(-c3ccc4c(c3)OCO4)c(-c3ccccn3)[nH]2)cc1 [B8431542] was tested, and the “further enhancement of differentiation by pathway inhibitors” value [1] was “did not further enhance the differentiation”.
With N[C@@H](CCC(=O)N[C@@H](CS)C(=O)NCC(=O)O)C(=O)O [Glutathione (reduced)] the “21 components subtracting: cardiac differentiation score” value [2] was “++ (>50% contraction)”.
With CCCCC/C=C\C/C=C\CCCCCCCC(=O)O [Linoleic acid] the “21 components subtracting: cardiac differentiation score” value [2] was 0, the “10 components subtracting: cardiac differentiation score” value [2] was 0 and the “9 components subtracting: cardiac differentiation score” value [2] was 0. The “9 components with the addition of: cardiac differentiation score” value [2, 3] was “+”, the “9 components (with 4 at 10x) subtracting: cardiac differentiation score” value [2] was 0 and the “6 components subtracting: cardiac differentiation score” value [2] was “+++ (>75% contraction)”.
With C[C@]12CCC(=O)C=C1CC[C@@H]1[C@@H]2[C@@H](O)C[C@@]2(C)[C@H]1CC[C@]2(O)C(=O)CO [Hydrocortisone] the “9 components with the addition of: cardiac differentiation score” value ([2]; d) addition of components from the other media formulae of Table 5) was “+”.
In the case of O=C(O)CCCC[C@@H]1CCSS1 (racemic) [Lipoic acid], the “21 components subtracting: cardiac differentiation score” value [2] is reported as “++ (>50% contraction)”.
In the case of O=C(O)CCCC[C@@H]1SC[C@@H]2NC(=O)N[C@@H]21 [Biotin (vit B7), Biotin], the “21 components subtracting: cardiac differentiation score” value [2] is reported as “++ (>50% contraction)”.
In the case of C[N+](C)(C)C[C@H](O)CC(=O)[O-] [L-carnitine], the “21 components subtracting: cardiac differentiation score” value [2] is reported as 0, the “10 components subtracting: cardiac differentiation score” value [2] is reported as 0 and the “9 components subtracting: cardiac differentiation score” value [2] is reported as 0. The “9 components with the addition of: cardiac differentiation score” value [2, 3] was 0.
With CC1=C(/C=C/C(C)=C/C=C/C(C)=C/CO)C(C)(C)CCC1 [Retinol, all trans (vit. A), Retinol, all trans] the “21 components subtracting: cardiac differentiation score” value [2] was “++ (>50% contraction)”.
For C[C@]12C[C@H](O)[C@H]3[C@@H](CCC4=CC(=O)CC[C@@]43C)[C@@H]1CC[C@@H]2C(=O)CO [Corticosterone], the “21 components subtracting: cardiac differentiation score” value [2] was 0 and the “10 components subtracting: cardiac differentiation score” value [2] was “++ (>50% contraction)”.
With CC(=O)Oc1c(C)c(C)c2c(c1C)CCC(C)(CCCC(C)CCCC(C)CCCC(C)C)O2 [D,L-a-tocopherol acetate] the “21 components subtracting: cardiac differentiation score” value [2] was 0, the “10 components subtracting: cardiac differentiation score” value [2] was 0 and the “9 components subtracting: cardiac differentiation score” value [2] was 0. For the same molecule, the “9 components with the addition of: cardiac differentiation score” value [2, 3] was “+++ (>75% contraction)” and the “9 components (with 4 at 10x) subtracting: cardiac differentiation score” value [2] was “+++ (>75% contraction)”.
